In patent publication US6943183B2 (Pfizer Inc, priority 2000, dated 2005) one finds IC50 data, which are given here for 42 molecules.

The target of this assay is T1, SF9 affinity purified rat FPT (Rattus norvegicus, UniProt Q02293+Q04631).
T1 construct: made in house; host or cells: Sf9 insect cells
Kind of assay: PFT (FPT) inhibitory activity assay, radiolabeled farnesyl pyrophosphate and biotinyl peptide, streptavidin beads. The class given is biochemical. To be noted: HEPES buffer pH 7.4, 30° C., 30 minutes; read-out: FTase IC50. In outline:
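Rat FPT expressed in SF9 cells was incubated 30 minutes at 30° C. with compound (in 10% DMSO), radiolabeled farnesyl pyrophosphate and biotinylated peptide. Buffer: HEPES pH 7.4, ZnCl2 20 μM, MgCl2 and DTT 5 mM each, 0.1% PEG 8000, 5 mM potassium phosphate (also run without phosphate). Product captured on streptavidin beads in magnesium acetate/H3PO4 stop buffer.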

The term IC50 denotes the point on the concentration scale where inhibition reaches its midpoint. For `CCCCC(Cn1ccnc1)Oc1ccc2c(c1CS(=O)(=O)c1ccccc1)CCCC2=O` (stereo not drawn) [Compound 63m, 6-{[1-(1H-Imidazol-ylmethyl)pentyl]oxy}-5-[(phenylsulfonyl)methyl]-3,4-dihydro-1(2H)-naphthalenone], the IC50 was 1 nM.
Turning to `CCC(Cn1ccnc1)Oc1ccc2c(c1CS(=O)(=O)c1ccccc1)CCCC2=O` (stereo not drawn) [Compound 63n, 6-[1-(1H-Imidazol-1-ylmethyl)propoxy]-5-[(phenylsulfonyl)methyl]-3,4-dihydro-1(2H)-naphthalenone], the IC50 turned out to be 7 nM.
Next, `O=C1CCCc2c1ccc(OC(Cn1ccnc1)c1cccs1)c2CS(=O)(=O)c1ccccn1` (stereo not drawn) [Compound 63p, 6-(2-Imidazol-yl-1-thiophen-2-yl-ethoxy)-5-(pyridine-2-sulfonylmethyl)-3,4-dihydro-2H-naphthalen-1-one]: 0.55 nM.
Turning to `O=C1CCCc2c1ccc(OC(Cn1ccnc1)c1nccs1)c2CS(=O)(=O)c1ccccn1` (stereo not drawn) [Compound 63q, 6-(2-Imidazol-1-yl-1-thiazol-2-yl-ethoxy)-5-(pyridine-2-sulfonylmethyl)-3,4-dihydro-2H-naphthalen-1-one], the IC50 was 0.5 nM.
As for `COCc1c(O[C@H](Cn2ccnc2)c2ccccc2)ccc2c1CCCC2=O` [Compound 64], the IC50 stood at 11 nM.
`COc1ccc(OCc2c(O[C@H](Cn3ccnc3)c3ccccc3)ccc3c2CCCC3=O)cc1` [Compound 65]: the IC50 is 0.4 nM.
For the molecule `O=C1CCCc2c1ccc(O[C@H](Cn1ccnc1)c1ccccc1)c2COc1ccccc1` [Compound 66, 6-((1S)-2-Imidazolyl-1-phenylethoxy)-5-(phenoxymethyl)-2,3,4-trihydronaphthalen-1-one], the IC50 was 12 nM.
As to `CC(C)(C)c1cccc(OCc2c(O[C@H](Cn3ccnc3)c3ccccc3)ccc3c2CCCC3=O)c1` [Compound 67], the IC50 was found to be 1 nM.
In the case of `O=C1CCCc2c1ccc(O[C@H](Cn1ccnc1)c1ccccc1)c2COc1cccc(Cl)c1` [Compound 69], the IC50 was determined as 0.7 nM.
In the case of `Cc1ccc(C(C)C)cc1OCc1c(O[C@H](Cn2ccnc2)c2ccccc2)ccc2c1CCCC2=O` [Compound 70], the IC50 worked out at 7 nM.
For `COc1cc(OC)cc(OCc2c(O[C@H](Cn3ccnc3)c3ccccc3)ccc3c2CCCC3=O)c1` [Compound 71, 6-((1S)-2-imidazolyl-1-phenylethoxy)-5-[(3,5-dimethoxyphenoxy)methyl]-2,3,4-trihydronaphthalen-1-one], the IC50 stood at 4 nM.
Turning to `CC(C)c1ccc(OCc2c(O[C@H](Cn3ccnc3)c3ccccc3)ccc3c2CCCC3=O)cc1` [Compound 72], the IC50 was 5 nM.
Consider `O=C1CCCc2c1ccc(O[C@H](Cn1ccnc1)c1ccccc1)c2COc1ccc2c(c1)CCCC2` [Compound 73, 6-((1S)-2-Imidazolyl-1-phenylethoxy)-5-(2-5,6,7,8-tetrahydro-naphthyloxymethyl)-2,3,4-trihydronaphthalen-1-one], for which the IC50 came to 2 nM.
For the molecule `CC(C)c1cccc(OCc2c(O[C@H](Cn3ccnc3)c3ccccc3)ccc3c2CCCC3=O)c1` [Compound 74], the half-maximal inhibitory concentration (IC50) amounted to 3 nM.
Turning to `O=C1CCCc2c1ccc(O[C@H](Cn1ccnc1)c1ccccc1)c2COc1cccc2[nH]ccc12` [Compound 76, 6-((1S)-2-Imidazolyl-1-phenylethoxy)-5-(indol-4-yloxymethyl)-2,3,4-trihydronaphthalen-1-one], the IC50 is 1 nM.
On to `CCOc1ccccc1OCc1c(O[C@H](Cn2ccnc2)c2ccccc2)ccc2c1CCCC2=O` [Compound 78, 6-((1S)-2-Imidazolyl-4-phenylethoxy)-5-[(2-ethoxyphenoxy)methyl]-2,3,4-trihydronaphthalen-1-one], for which the concentration for half-maximal inhibition (IC50) is 0.8 nM.
As for `CCOc1ccc(OCc2c(O[C@H](Cn3ccnc3)c3ccccc3)ccc3c2CCCC3=O)cc1` [Compound 79], the IC50 is 0.8 nM.
`COC(=O)c1ccccc1OCc1c(O[C@H](Cn2ccnc2)c2ccccc2)ccc2c1CCCC2=O` [Compound 81, Methyl 2-{[2-((1S)-2-imidazolyl-1-phenylethoxy)-5-oxo-6,7,8-trihydronaphthyl]methoxy}benzoate]: the IC50 worked out at 4 nM.
Next, `Cc1ccc(OCc2c(O[C@H](Cn3ccnc3)c3ccccc3)ccc3c2CCCC3=O)cn1` [Compound 82]: 9 nM; `Cc1ccc(OCc2c(O[C@H](Cn3ccnc3)c3ccccc3)ccc3c2CCCC3=O)cn1` [Compound 83, 6-((1S)-2-imidazolyl-1-phenylethoxy)-5-[(6-methyl(3-pyridyloxy))methyl]-2,3,4-trihydronaphthalen-1-one]: 18 nM; `O=C1CCCc2c1ccc(O[C@H](Cn1ccnc1)c1ccccc1)c2COc1ccc2ccccc2c1` [Compound 85]: 10 nM.
For the molecule `COC(=O)c1cccc(OCc2c(O[C@H](Cn3ccnc3)c3ccccc3)ccc3c2CCCC3=O)c1` [Compound 88, Methyl 3-{[2-((1S)-2-imidazolyl-1-phenylethoxy)-5-oxo-6,7,8-trihydronaphthyl]methoxy}benzoate], the IC50 came to 7 nM.
Next, `Cc1cc(C)c(OCc2c(O[C@H](Cn3ccnc3)c3ccccc3)ccc3c2CCCC3=O)c(C)c1` [Compound 89, 6-((1S)-2-Imidazolyl-1-phenylethoxy)-5-[(2,4,6-trimethylphenoxy)methyl]-2,3,4-trihydronaphthalen-1-one]: 7 nM; `O=C1CCCc2c1ccc(O[C@H](Cn1ccnc1)c1ccccc1)c2COc1ccc2c(c1)OCO2` [Compound 92, 6-((1S)-2-imidazolyl-1-phenylethoxy)-5-(2H-benzo[d]1,3-dioxolan-5-yloxymethyl)-2,3,4-trihydronaphthalen-1-one]: 4 nM.
For the molecule `O=C1CCCc2c1ccc(O[C@H](Cn1ccnc1)c1ccccc1)c2COc1ccc2c(c1)OCO2` [Compound 93, 6-((1S)-2-Imidazolyl-1-phenylethoxy)-5-(2H-benzo[d]1,3-dioxolan-5-yloxymethyl)-2,3,4-trihydronaphthalen-1-one], the IC50 turned out to be 3 nM.
On to `O=C1CCCc2c1ccc(O[C@H](Cn1ccnc1)c1ccccc1)c2COc1cccc2cccnc12` [Compound 94], for which the IC50 came out at 3 nM.
With `O=C1CCCc2c1ccc(O[C@H](Cn1ccnc1)c1ccccc1)c2COc1ccc(OC(F)(F)F)cc1` [Compound 96, 6-((1S)-2-Imidazolyl-1-phenylethoxy)-5-{[4-(trifluoromethoxy)phenoxy]methyl}-2,3,4-trihydronaphthalen-1-one], the IC50 was found to be 5 nM.
In the case of `O=C1CCCc2c1ccc(O[C@H](Cn1ccnc1)c1ccccc1)c2COc1ccc(Oc2ccccc2)cc1` [Compound 97], the IC50 came out at 6 nM.
Regarding `Cc1cccc(OCc2c(O[C@H](Cn3ccnc3)c3ccccc3)ccc3c2CCCC3=O)c1` [Compound 99], the IC50 is 5 nM.
On to `Cc1ccc(OCc2c(O[C@H](Cn3ccnc3)c3ccccc3)ccc3c2CCCC3=O)cc1` [Compound 100], for which the IC50 was 4 nM.
Next, `O=C1CCCc2c1ccc(O[C@H](Cn1ccnc1)c1ccccc1)c2COc1ccccc1F` [Compound 101]: 3 nM; `O=C1CCCc2c1ccc(O[C@H](Cn1ccnc1)c1ccccc1)c2COc1cccc(F)c1` [Compound 102]: 5 nM; `O=C1CCCc2c1ccc(O[C@H](Cn1ccnc1)c1ccccc1)c2COc1ccc(F)cc1` [Compound 103, 6-((1S)-2-Imidazolyl-1-phenylethoxy)-5-[(4-fluorophenoxy)methyl]-2,3,4-trihydronaphthalen-1-one]: 5 nM.
Then `O=C1CCCc2c1ccc(O[C@H](Cn1ccnc1)c1ccccc1)c2COc1cccc2ccccc12` [Compound 104, 6-((1S)-2-Imidazolyl-1-phenylethoxy)-5-(naphenyloxymethyl)-2,3,4-trihydronaphthalen-1-one], with 5 nM; and `COc1cccc(OCc2c(O[C@H](Cn3ccnc3)c3ccccc3)ccc3c2CCCC3=O)c1` [Compound 105, 6-((1S)-2-Imidazolyl-1-phenylethoxy)-5-[(3-methoxyphenoxy)methyl]-2,3,4-trihydronaphthalen-1-one], with 5 nM; and `O=C1CCCc2c1ccc(O[C@H](Cn1ccnc1)c1ccccc1)c2COc1ccccc1Cl` [Compound 106], with 6 nM.
Regarding `O=C1CCCc2c1ccc(O[C@H](Cn1ccnc1)c1ccccc1)c2COc1ccc2ncccc2c1` [Compound 107, 6-((1S)-2-Imidazolyl-1-phenylethoxy)-5-(6-quinolyloxymethyl)-2,3,4-trihydronaphthalen-1-one], the IC50 was 10 nM.
`O=C1CCCc2c1ccc(O[C@H](Cn1ccnc1)c1ccccc1)c2COc1ccc2ncccc2c1` [Compound 108, 6-((1S)-2-Imidazolyl-1-phenylethoxy)-5-(6-quinolyloxymethyl)-2,3,4-trihydronaphthalen-1-one]: the 50% inhibitory concentration (IC50) was 3 nM.
Then `O=C1CCCc2c1ccc(O[C@H](Cn1ccnc1)c1ccccc1)c2CSc1ccc(Br)cc1` [Compound 109, 6-((1S)-2-Imidazolyl-1-phenylethoxy)-5-[(4-bromophenylthio)methyl]-2,3,4-trihydronaphthalen-1-one], with 30 nM; and `O=C1CCCc2c1ccc(O[C@H](Cn1ccnc1)c1ccccc1)c2CSC1CCCCC1` [Compound 117], with 1 nM; and `O=C(O)c1cccnc1SCc1c(O[C@H](Cn2ccnc2)c2ccccc2)ccc2c1CCCC2=O` [Compound 126, 2-{[2-((1S)-2-Imidazolyl-1-phenylethoxy)-5-oxo-6,7,8-trihydronaphenyl]methylthio}pyridine-3-carboxylic acid], with 19 nM.
Then `COc1ccc([S+]([O-])Cc2c(O[C@H](Cn3ccnc3)c3ccccc3)ccc3c2CCCC3=O)cc1` (stereo partly drawn) [Compound 141, 6-((S)-2-Imidazol-1-yl-1-phenyl-ethoxy)-5-(4-methoxy-benzenesulfinylmethyl)-3,4-dihydro-2H-napthalen-1-one], with 0.35 nM.
